Reference: patent US20230392170A1, “BIG-IN: A VERSATILE PLATFORM FOR LOCUS-SCALE GENOME REWRITING AND VERIFICATION” (New York University, priority 2020, published 2023)
Entries after “also recorded” stand apart in the source; their conditions may differ.

How the values were obtained:
H1 hESCs [1] = experiment: TK/GCV counterselection in co-cultures of TK-negative and TK-positive (LP-TK) cells, live cells by PrestoBlue; type: cell-based, human; settings: 1 μM GCV for 4 days
Protocol: FIG. 2. Development of an efficient counterselection strategy. a, Parental (TK−) and LP-TK (TK+) H1 hESCs were co-cultured at the indicated ratios, treated with 1 μM, GCV for 4 days, and assayed for the number of live cells using PrestoBlue. Cell counts are shown relative to unmixed parental cells. Bars show mean+S.D. (n=2). b, GCV enters TK+ cells and is metabolized into the toxic membrane-impermeable compound GCV-TP, which diffuses into neighboring cells and induces bystander cell death in TK-cells. c, Big-IN counterselection strategy using PIGA/Proaerolysin. d, Parental and ΔPIGA H1 hESCs co-cultured at the indicated ratios for three days were treated with 1 nM proaerolysin for 1 day and stained with Crystal Violet 3 days later. e, Parental and ΔPiga BL6xCAST mESCs were co-cultured at the indicated ratios for one day, treated with 1 nM proaerolysin for 1 day, stained with Crystal Violet 5 days later, and colonies were counted. Bars represent mean+S.D. (n=2).
Delivery of large DNA through cassette exchange is an infrequent event, requiring selection to obtain practical efficiency. The HSV1-TK gene is a widely used counterselectable marker that renders cells sensitive to GCV by converting it to the toxic metabolite GCV-triphosphate (GCV-TP), which inhibits DNA synthesis and leads to cell death^38. […]

[2] = tested on: H1 LP-TK hESCs (HSV1-ΔTK); experiment: GCV kill-curve assay, LP-TK clone 581 vs parental cells, live cells by PrestoBlue; settings: indicated GCV concentrations for 3 days
Protocol: Bars represent mean+S.D. of technical replicates (n=3). c, H1 LP-TK clone 581 and non-engineered parental H1 hESCs were treated with the indicated concentrations of GCV for 3 days, followed by quantification of live cells using PrestoBlue. Data were normalized to the value of untreated cells.
PrestoBlue (ThermoFisher Scientific A13262) staining was performed according to the manufacturer's protocol.

Parental H1 cells = experiment: GCV/TK bystander paracrine test: parental cells in medium or LP-TK conditioned medium with GCV; type: cell-based, human; settings: 0.1 μM GCV, 7 days, also when preincubated with LP-TK cells (conditioned medium)
Protocol: FIG. 8. Development of an efficient counterselection strategy. a, Lack of paracrine activity in GCV/TK bystander effect. Parental H1 cells were grown for 7 days with regular StemFlex medium with or without 0.1 μM GCV or with a 1:1 mixture of regular medium and conditioned medium harvested from LP-TK cells grown with or without 0.1 μM GCV. […] Bars represent mean+S.D. for technical replicates (n=3). b, PCR genotyping for parental (Par), ΔPIGA and LP-PIGA H1 hESCs. Primers target a region of the PIGA gene (WT PIGA), the novel junction formed following PIGA deletion (ΔPIGA), a region of HPRT1 gene (WT HPRT1) and the two novel junctions formed between LP-PIGA and the surrounding genome (LP L and R Jx). c, Proaerolysin-induced cell death. The indicated H1 hESCs were treated with 0.5 nM proaerolysin for 1 day and stained with Crystal Violet. Proaerolysin resistance is conferred by PIGA inactivation and restored by hmPIGA expression. d, Rapid proaerolysin-induced cell death. e, Proaerolysin kill-curve for H1 hESCs and BL6xCAST mESCs. Cells were treated with proaerolysin for 1 day and assayed 3 days (H1) or 1 day (BL6xCAST) post treatment. Experiment was conducted in replicates (H1, n=4; BL6xCAST, n=2) and data are represented as mean±S.D. f, CD59/HLA flow cytometry of H1 hESCs. […]

H1 hESCs [3] = experiment: Proaerolysin-induced cell death, Crystal Violet staining / kill-curve; type: cell-based, human
Protocol: FIG. 8. Development of an efficient counterselection strategy. a, Lack of paracrine activity in GCV/TK bystander effect. Parental H1 cells were grown for 7 days with regular StemFlex medium with or without 0.1 μM GCV or with a 1:1 mixture of regular medium and conditioned medium harvested from LP-TK cells grown with or without 0.1 μM GCV. […] Bars represent mean+S.D. for technical replicates (n=3). b, PCR genotyping for parental (Par), ΔPIGA and LP-PIGA H1 hESCs. Primers target a region of the PIGA gene (WT PIGA), the novel junction formed following PIGA deletion (ΔPIGA), a region of HPRT1 gene (WT HPRT1) and the two novel junctions formed between LP-PIGA and the surrounding genome (LP L and R Jx). c, Proaerolysin-induced cell death. The indicated H1 hESCs were treated with 0.5 nM proaerolysin for 1 day and stained with Crystal Violet. Proaerolysin resistance is conferred by PIGA inactivation and restored by hmPIGA expression. d, Rapid proaerolysin-induced cell death. e, Proaerolysin kill-curve for H1 hESCs and BL6xCAST mESCs. Cells were treated with proaerolysin for 1 day and assayed 3 days (H1) or 1 day (BL6xCAST) post treatment. Experiment was conducted in replicates (H1, n=4; BL6xCAST, n=2) and data are represented as mean±S.D. f, CD59/HLA flow cytometry of H1 hESCs. Note the complete loss of CD59, a GPI-anchored protein, in ΔPIGA cells, and the retention of HLA, a non-GPI-anchored membranal protein. g, Flow cytometry of H1 hESCs showing the reconstitution of CD59 expression in LP-PIGA cells.
Integration of a landing pad expressing a human mini PIGA gene (hmPIGA) to the HPRT1 locus resensitized H1 ΔPIGA hESCs to proaerolysin and restored CD59 expression (FIG. 7c, FIG. 7g). Importantly, rare ΔPIGA H1 hESCs were efficiently isolated when co-cultured with parental H1 cells by applying proaerolysin selection (FIG. 2d). Similarly, the Piga/proaerolysin counterselection strategy was used to efficiently isolate rare mESCs (FIG. 2e).

| Molecule | TK-negative cells that died when mixed with TK-positive cells (H1 hESCs [1]; 1:1 ratio TK-negative:TK-positive) | death of TK-negative cells when mixed with TK-positive cells (H1 hESCs [1]; 1:10 ratio TK-negative:TK-positive) | cytotoxicity to LP-TK (HSV1-ΔTK expressing) H1 hESCs [2] | effect on parental (TK-negative) H1 cells (Parental H1 cells) | sensitivity of H1 ΔPIGA hESCs after landing pad expressing hmPIGA at HPRT1 (H1 hESCs [3]; LP-PIGA H1 hESCs) | killing of parental H1 hESCs (H1 hESCs [3]; parental H1 hESCs) | sensitivity of ΔPIGA H1 hESCs (H1 hESCs [3]; ΔPIGA cells (PIGA deleted using CRISPR/Cas9)) |
| --- | --- | --- | --- | --- | --- | --- | --- |
| Nc1nc(O)c2ncn(COC(CO)CO)c2n1 [GCV, Ganciclovir] | More than 80% | all died | kills LP-TK cells; also recorded: Robust cytotoxic activity | no effect |  |  |  |
| proaerolysin: a bacterial prototoxin; perforates the plasma membrane upon binding to GPI anchors on the cell surface |  |  |  |  | resensitized | efficiently killed | entirely resistant |
